# Measurements from patent US12145927B2 (BRISTOL-MYERS SQUIBB COMPANY, priority 2018, dated 2024).
# pIC50: −log10 of the molar value.
# Target: T1, human IDO1 (Homo sapiens, UniProt P14902)
# T1 construct: expressed in transfected cells
# Test: IDO inhibition assay in human IDO1/HEK293 cells (IDO1 HEK Human)
# Assay type: cell-based
# Conditions: HEK293 cells stably expressing human IDO1; 20 hours incubation; absorbance at 490 nm after Ehrlich reagent
# Method in brief: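 Kynurenine output of stably IDO1-transfected HEK293 cells was measured by absorbance at 490 nm after mixing supernatant with 0.2% Ehrlich reagent, following TCA stop (0.2% final, 50° C., 30 min). Cells were incubated 20 hours with compound. Inhibition was scaled between DMSO and 500 nM reference standard.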
# T1 sequence (P14902 whole entry): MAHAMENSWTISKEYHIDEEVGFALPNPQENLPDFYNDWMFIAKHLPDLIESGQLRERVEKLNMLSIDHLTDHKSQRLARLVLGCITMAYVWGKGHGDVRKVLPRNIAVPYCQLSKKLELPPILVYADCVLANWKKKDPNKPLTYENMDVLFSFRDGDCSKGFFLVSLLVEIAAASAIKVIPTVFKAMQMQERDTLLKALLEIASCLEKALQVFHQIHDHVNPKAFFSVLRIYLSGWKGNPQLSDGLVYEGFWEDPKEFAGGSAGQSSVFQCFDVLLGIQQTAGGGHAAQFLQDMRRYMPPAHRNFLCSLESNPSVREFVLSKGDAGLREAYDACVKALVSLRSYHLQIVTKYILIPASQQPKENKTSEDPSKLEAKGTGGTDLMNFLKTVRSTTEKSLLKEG
row,SMILES,pIC50
1,"CCC(C)C1CCCOc2c(NC(=O)Cc3ccc(C)cc3)cc(-c3ccccc3-c3nnn[nH]3)cc21 (single isomer, unassigned) [30 (Dia. mix 1), N-(7-(2-(1H-tetrazol-5-yl)phenyl)-5-(sec-butyl)-2,3,4,5-tetrahydrobenzo[b]oxepin-9-yl)-2-(p-tolyl)acetamide]",7.11
2,"Cc1ccc(CC(=O)Nc2cc(-c3ccccc3-c3nnn[nH]3)cc3c2OCCCC3C2CC2)cc1 (single isomer, unassigned) [37 (En. 1), N-(7-(2-(1H-tetrazol-5-yl)phenyl)-5-cyclopropyl-2,3,4,5-tetrahydrobenzo[b]oxepin-9-yl)-2-(p-tolyl)acetamide]",6.66
3,"O=C(Nc1ccccc1F)Nc1cc(-c2ccccc2-c2nnn[nH]2)cc2c1OCCCC2C1CC1 (single isomer, unassigned) [38 (En. 1), 1-(7-(2-(1H-tetrazol-5-yl)phenyl)-5-cyclopropyl-2,3,4,5-tetrahydrobenzo[b]oxepin-9-yl)-3-(2-fluorophenyl)urea]",6.65
4,"Cc1ccc(CC(=O)Nc2cc(-c3ccccc3-c3nnn[nH]3)cc3c2OCCCC3C2CC2)c(F)c1 (single isomer, unassigned) [39 (En. 1)]",< 5.22
5,"O=C(Cc1ccccc1F)Nc1cc(-c2ccccc2-c2nnn[nH]2)cc2c1OCCCC2C1CC1 (single isomer, unassigned) [40 (En. 1), N-(7-(2-(1H-tetrazol-5-yl)phenyl)-5-cyclopropyl-2,3,4,5-tetrahydrobenzo[b]oxepin-9-yl)-2-(2-fluorophenyl)acetamide]",6.66
6,"O=C(Nc1ccc(Cl)cc1F)Nc1cc(-c2ccccc2-c2nnn[nH]2)cc2c1OCCCC2C1CC1 (single isomer, unassigned) [41 (En. 2), 1-(7-(2-(1H-tetrazol-5-yl)phenyl)-5-cyclopropyl-2,3,4,5-tetrahydrobenzo[b]oxepin-9-yl)-3-(4-chloro-2-fluorophenyl)urea]",7.03
7,"c1ccc(C2CCCOc3c(Nc4nc5ccccc5o4)cc(-c4ccccc4-c4nnn[nH]4)cc32)cc1 (single isomer, unassigned) [53 (En. 1), N-(7-(2-(1H-tetrazol-5-yl)phenyl)-5-phenyl-2,3,4,5-tetrahydrobenzo[b]oxepin-9-yl) benzo[d] oxazol-2-amine]",6.67
8,"Cc1cnc(Nc2cc(-c3ccccc3-c3nnn[nH]3)cc3c2OCCCC3c2ccccc2)nc1 (single isomer, unassigned) [55 (En. 1), N-(7-(2-(1H-tetrazol-5-yl)phenyl)-5-phenyl-2,3,4,5-tetrahydrobenzo[b]oxepin-9-yl)-5-methylpyrimidin-2-amine]",5.85
9,"Cc1cnc(Nc2cc(-c3ccccc3-c3nnn[nH]3)cc3c2OCCCC3c2ccccc2)nc1 (single isomer, unassigned) [55 (En. 2), N-(7-(2-(1H-tetrazol-5-yl)phenyl)-5-phenyl-2,3,4,5-tetrahydrobenzo[b]oxepin-9-yl)-5-methylpyrimidin-2-amine]",7.11
10,"Fc1ccc2nc(Nc3cc(-c4ccccc4-c4nnn[nH]4)cc4c3OCCCC4c3ccccc3)sc2c1 (single isomer, unassigned) [57 (En. 1), N-(7-(2-(1H-tetrazol-5-yl)phenyl)-5-phenyl-2,3,4,5-tetrahydrobenzo[b]oxepin-9-yl)-6-fluorobenzo[d]thiazol-2-amine]",6.07
11,"Fc1ccc2nc(Nc3cc(-c4ccccc4-c4nnn[nH]4)cc4c3OCCCC4c3ccccc3)sc2c1 (single isomer, unassigned) [57 (En. 2), N-(7-(2-(1H-tetrazol-5-yl)phenyl)-5-phenyl-2,3,4,5-tetrahydrobenzo[b]oxepin-9-yl)-6-fluorobenzo[d]thiazol-2-amine]",6.72
12,"CC(=O)NS(=O)(=O)c1ccccc1-c1cc(NC(=O)Nc2ccc(C)cc2)c2c(c1)C(c1ccccc1)CCCO2 (single isomer, unassigned) [59 (En. 2), N-((2-(5-phenyl-9-(3-(p-tolyl)ureido)-2,3,4,5-tetrahydrobenzo[b]oxepin-7-yl)phenyl)sulfonyl)acetamide]",6.55
13,"Cc1ccc(NC(=O)Nc2cc(-c3ccccc3S(=O)(=O)NC(=O)c3ccccc3)cc3c2OCCCC3c2ccccc2)cc1 (single isomer, unassigned) [60 (En. 1), N-((2-(5-phenyl-9-(3-(p-tolyl)ureido)-2,3,4,5-tetrahydrobenzo[b]oxepin-7-yl)phenyl)sulfonyl)benzamide]",< 5.22
14,"Cc1ccc(Nc2cc(-c3ccccc3-c3nnn[nH]3)cc3c2OCCCC3c2ccccc2)nc1 (single isomer, unassigned) [62 (En. 1), N-(7-(2-(1H-tetrazol-5-yl)phenyl)-5-phenyl-2,3,4,5-tetrahydrobenzo[b]oxepin-9-yl)-5-methylpyridin-2-amine]",5.74
15,"Fc1cnc(Nc2cc(-c3ccccc3-c3nnn[nH]3)cc3c2OCCCC3c2ccccc2)nc1 (single isomer, unassigned) [63 (En. 1), N-(7-(2-(1H-tetrazol-5-yl)phenyl)-5-phenyl-2,3,4,5-tetrahydrobenzo[b]oxepin-9-yl)-5-fluoropyrimidin-2-amine]",6.27
16,"c1ccc(C2CCCOc3c(Nc4nc5ccccc5s4)cc(-c4ccccc4-c4nnn[nH]4)cc32)cc1 (single isomer, unassigned) [64 (En. 1), N-(7-(2-(1H-tetrazol-5-yl)phenyl)-5-phenyl-2,3,4,5-tetrahydrobenzo[b]oxepin-9-yl) benzo[d]thiazol-2-amine]",6.38

# Compounds with a higher pIC50, results first:
row,pIC50,SMILES
1,7.93,"CCC(C)C1CCCOc2c(NC(=O)Cc3ccc(C)cc3)cc(-c3ccccc3-c3nnn[nH]3)cc21 (single isomer, unassigned) [30 (Dia. mix 2), N-(7-(2-(1H-tetrazol-5-yl)phenyl)-5-(sec-butyl)-2,3,4,5-tetrahydrobenzo[b]oxepin-9-yl)-2-(p-tolyl)acetamide]"
2,8.39,"CCC(C)C1CCCOc2c(NC(=O)Cc3ccc(C)cc3)cc(-c3ccccc3-c3nnn[nH]3)cc21 (single isomer, unassigned) [30 (En. 1), N-(7-(2-(1H-tetrazol-5-yl)phenyl)-5-(sec-butyl)-2,3,4,5-tetrahydrobenzo[b]oxepin-9-yl)-2-(p-tolyl)acetamide]"
3,7.51,"Cc1ccc(CC(=O)Nc2cc(-c3ccccc3-c3nnn[nH]3)cc3c2OCCCC3C2CC2)cc1 (single isomer, unassigned) [37 (En. 2), N-(7-(2-(1H-tetrazol-5-yl)phenyl)-5-cyclopropyl-2,3,4,5-tetrahydrobenzo[b]oxepin-9-yl)-2-(p-tolyl)acetamide]"
4,7.71,"O=C(Nc1ccccc1F)Nc1cc(-c2ccccc2-c2nnn[nH]2)cc2c1OCCCC2C1CC1 (single isomer, unassigned) [38 (En. 2), 1-(7-(2-(1H-tetrazol-5-yl)phenyl)-5-cyclopropyl-2,3,4,5-tetrahydrobenzo[b]oxepin-9-yl)-3-(2-fluorophenyl)urea]"
5,7.49,"Cc1ccc(CC(=O)Nc2cc(-c3ccccc3-c3nnn[nH]3)cc3c2OCCCC3C2CC2)c(F)c1 (single isomer, unassigned) [39 (En. 2)]"
6,7.23,"O=C(Cc1ccccc1F)Nc1cc(-c2ccccc2-c2nnn[nH]2)cc2c1OCCCC2C1CC1 (single isomer, unassigned) [40 (En. 2), N-(7-(2-(1H-tetrazol-5-yl)phenyl)-5-cyclopropyl-2,3,4,5-tetrahydrobenzo[b]oxepin-9-yl)-2-(2-fluorophenyl)acetamide]"
7,7.60,"O=C(Nc1ccc(Cl)cc1F)Nc1cc(-c2ccccc2-c2nnn[nH]2)cc2c1OCCCC2C1CC1 (single isomer, unassigned) [41 (En. 1), 1-(7-(2-(1H-tetrazol-5-yl)phenyl)-5-cyclopropyl-2,3,4,5-tetrahydrobenzo[b]oxepin-9-yl)-3-(4-chloro-2-fluorophenyl)urea]"
8,8.89,"c1ccc(C2CCCOc3c(Nc4nc5ccccc5o4)cc(-c4ccccc4-c4nnn[nH]4)cc32)cc1 (single isomer, unassigned) [53 (En. 2), N-(7-(2-(1H-tetrazol-5-yl)phenyl)-5-phenyl-2,3,4,5-tetrahydrobenzo[b]oxepin-9-yl) benzo[d] oxazol-2-amine]"
9,7.35,"Cc1ccc(Nc2cc(-c3ccccc3-c3nnn[nH]3)cc3c2OCCCC3c2ccccc2)nc1 (single isomer, unassigned) [62 (En. 2), N-(7-(2-(1H-tetrazol-5-yl)phenyl)-5-phenyl-2,3,4,5-tetrahydrobenzo[b]oxepin-9-yl)-5-methylpyridin-2-amine]"
10,7.94,"Fc1cnc(Nc2cc(-c3ccccc3-c3nnn[nH]3)cc3c2OCCCC3c2ccccc2)nc1 (single isomer, unassigned) [63 (En-2), N-(7-(2-(1H-tetrazol-5-yl)phenyl)-5-phenyl-2,3,4,5-tetrahydrobenzo[b]oxepin-9-yl)-5-fluoropyrimidin-2-amine]"
11,7.77,"c1ccc(C2CCCOc3c(Nc4nc5ccccc5s4)cc(-c4ccccc4-c4nnn[nH]4)cc32)cc1 (single isomer, unassigned) [64 (En. 2), N-(7-(2-(1H-tetrazol-5-yl)phenyl)-5-phenyl-2,3,4,5-tetrahydrobenzo[b]oxepin-9-yl) benzo[d]thiazol-2-amine]"
12,7.59,"c1ccc(C2CCCOc3c(Nc4ccn5nccc5n4)cc(-c4ccccc4-c4nnn[nH]4)cc32)cc1 (single isomer, unassigned) [84 (En. 2), N-(7-(2-(1H-tetrazol-5-yl)phenyl)-5-phenyl-2,3,4,5-tetrahydrobenzo[b]oxepin-9-yl) pyrazolo[1,5-a]pyrimidin-5-amine]"
13,7.59,"COCC(CC(=O)O)c1cc(Nc2ccc(C#N)cc2)c2c(c1)C(C1CC1)CCCO2 (single isomer, unassigned) [131 (dia. 1), 3-(9-(4-Cyanophenylamino)-5-cyclopropyl-2,3,4,5-tetrahydrobenzo[b]oxepin-7-yl)-4-methoxybutanoic acid]"
14,7.50,"Cc1ccc(CC(=O)Nc2cc(-c3ccccc3-c3nnn[nH]3)cc3c2OCCCC3c2ccccc2)cc1 (single isomer, unassigned) [Example 2-2, N-(7-(2-(1H-tetrazol-5-yl)phenyl)-5-phenyl-2,3,4,5-tetrahydrobenzo[b]oxepin-9-yl)-2-(p-tolyl)acetamide]"
